We go through 16 molecules from PubChem BioAssay (NCI).

Test systems include ACHN renal; EKVX NSCLC; KM12 colon; MDA-MB-231 breast; MDA-MB-435; NCI/ADR-RES ovarian; SK-MEL-5 melanoma; SNB-75 CNS; LOX IMVI melanoma; MDA-N.
What all share (test): growth of human tumour cells (NCI), 48 h

Molecules are shown by their SMILES.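 Dose response: 5 concentrations. Exposure: 48 h. Format: 96-well plates. Endpoint: linear interpolation; highest concentration if not reached. The concentration for 50% growth inhibition is given as GI50. Definition used: TGI = concentration required for complete inhibition of growth.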 Where only a bound is given, the exact number is not on record here.

With `Clc1ccc(CCn2ccc3ccccc32)c(Cl)c1`, the TGI in the test with ACHN renal, in the test with EKVX NSCLC, in the test with KM12 colon, in the test with MDA-MB-231 breast, with MDA-MB-435 and in the test with NCI/ADR-RES ovarian was > 100 µM throughout. The TGI in the test with SK-MEL-5 melanoma and with SNB-75 CNS was > 100 µM throughout.
As for `O=C(N/N=C/c1cc(-c2ccccc2Cl)c(-c2ccccc2Cl)o1)c1ccncc1`, the TGI with ACHN renal, in the test on EKVX NSCLC, in the test with LOX IMVI melanoma and with SNB-75 CNS was > 100 µM throughout.
On to `COC[C@H](Cc1ccccc1)N=Cc1ccccc1`, for which the TGI in the test with ACHN renal, in the test on EKVX NSCLC, in the test on KM12 colon, in the test with LOX IMVI melanoma, in the test with MDA-MB-435 and in the test with NCI/ADR-RES ovarian was > 100 µM each time. Moreover, the TGI with SK-MEL-5 melanoma and in the test with SNB-75 CNS was > 100 µM in each case.
Consider `O=c1[nH]/c(=C/c2ccc(OCc3ccccc3)cn2)c(=O)[nH]/c1=C/c1cccnc1`, for which the TGI was > 100 µM in the test on ACHN renal; > 75.2 µM in the test on EKVX NSCLC; > 36.8 µM with KM12 colon; > 100 µM in the test on LOX IMVI melanoma; 0.261 µM with MDA-MB-435; 0.71 µM in the test with MDA-N. The TGI with NCI/ADR-RES ovarian was determined as 1.33 µM; in the test on SNB-75 CNS, 36.8 µM.
In the case of `CC1=C2CC3=C(C)C(=O)O[C@H]3C[C@@H](C)[C@@H]2CC1`, the TGI in the test with ACHN renal, in the test on EKVX NSCLC, with KM12 colon, in the test on LOX IMVI melanoma, in the test with MDA-MB-231 breast and in the test with MDA-MB-435 was > 100 µM throughout. Also, the TGI in the test on NCI/ADR-RES ovarian, in the test with SK-MEL-5 melanoma and with SNB-75 CNS was > 100 µM in each case.
Take `COc1ccc(C2Oc3cc(OC)c(O)cc3[C@@H]2C)cc1` (stereo partly drawn): the TGI is 33.2 µM in the test with ACHN renal; > 100 µM with EKVX NSCLC; > 100 µM in the test with KM12 colon; 27.9 µM in the test with LOX IMVI melanoma; > 100 µM in the test on SK-MEL-5 melanoma; 96.6 µM in the test with SNB-75 CNS.
Consider `COc1cc2c(oc(=O)c3c4oc([Si](C)(C)C)cc4cc(OC)c23)c2cccc(O)c12`, for which the TGI in the test with ACHN renal, in the test on EKVX NSCLC, in the test on KM12 colon, in the test with LOX IMVI melanoma, in the test on SK-MEL-5 melanoma and with SNB-75 CNS was > 100 µM throughout.
On to `O=c1n(CCO)nc2n1CCCN2`, for which the TGI with ACHN renal, with EKVX NSCLC, in the test with KM12 colon, with LOX IMVI melanoma, in the test with MDA-MB-231 breast and in the test on MDA-MB-435 was > 100 µM in each case. The TGI in the test on MDA-N, with SK-MEL-5 melanoma and in the test on SNB-75 CNS was > 100 µM throughout.
Take `Cc1cn2cc(-c3ccncc3)nc2s1`: the TGI in the test on ACHN renal was > 100 µM; with EKVX NSCLC, > 100 µM; in the test with KM12 colon, > 100 µM; in the test on LOX IMVI melanoma, > 84.4 µM; in the test with SK-MEL-5 melanoma, > 100 µM; in the test on SNB-75 CNS, > 100 µM.
For `O=c1[nH]c2cccccc-2c1-c1nc2ccccc2[nH]1`, the TGI in the test with ACHN renal was 51.6 µM; in the test on EKVX NSCLC it was > 100 µM; in the test on KM12 colon it was > 100 µM; in the test on LOX IMVI melanoma, > 100 µM; with SK-MEL-5 melanoma, 47.6 µM; with SNB-75 CNS, 30.2 µM.
As to `O=C(CSCC(=O)N/N=C\c1cc(Br)cc(Br)c1O)N/N=C\c1cc(Br)cc(Br)c1O`, the TGI with ACHN renal was 31.4 µM; with EKVX NSCLC, > 100 µM; in the test with KM12 colon, > 100 µM; in the test on LOX IMVI melanoma it was 34.1 µM; with MDA-MB-435, > 100 µM; in the test with NCI/ADR-RES ovarian it was > 100 µM. Further, the TGI with SK-MEL-5 melanoma is 92.2 µM; in the test on SNB-75 CNS, > 100 µM.
Consider `COc1ccccc1C1C(Cl)C(=O)N1NC(=O)Cc1ccccc1` (stereo not drawn), for which the TGI in the test on ACHN renal, in the test with EKVX NSCLC, in the test on KM12 colon, in the test with LOX IMVI melanoma, in the test with SK-MEL-5 melanoma and in the test on SNB-75 CNS was > 100 µM in each case.
For the molecule `Nc1cc(N)c2nc(-c3ccccc3)c(Sc3ccc(F)cc3)nc2c1`, the GI50 with ACHN renal was 14.2 µM; in the test with EKVX NSCLC, 20.5 µM; in the test on KM12 colon, 20.8 µM; in the test with LOX IMVI melanoma, 22.7 µM; in the test with MDA-MB-231 breast, 17.5 µM; in the test on MDA-MB-435, 16.3 µM. In addition, the GI50 in the test on NCI/ADR-RES ovarian was 16.6 µM; in the test on SK-MEL-5 melanoma, 15.6 µM; with SNB-75 CNS it was 21.1 µM. Further, the TGI in the test on ACHN renal amounted to 27.7 µM; with EKVX NSCLC it was 41.2 µM; with KM12 colon, 48.5 µM; in the test on LOX IMVI melanoma it was 41.2 µM; in the test on MDA-MB-231 breast, 38 µM; in the test on MDA-MB-435 it was 32.9 µM. Further, the TGI in the test on NCI/ADR-RES ovarian is 34.7 µM; in the test on SK-MEL-5 melanoma, 33.4 µM; in the test on SNB-75 CNS it was 47.8 µM.
With `N#Cc1ccc(/C=C2\Cc3ccccc3C2=O)cc1`, the TGI in the test on ACHN renal, in the test with EKVX NSCLC, in the test with KM12 colon, in the test with MDA-MB-231 breast, in the test with MDA-MB-435 and with MDA-N was > 100 µM throughout. For the same molecule, the TGI in the test with SK-MEL-5 melanoma and in the test with SNB-75 CNS was > 100 µM throughout.
Regarding `Cc1ccc(-c2c(C#N)c(O)n(NS(=O)(=O)c3ccccc3)c(=O)c2C#N)cc1`, the TGI in the test on ACHN renal, in the test with EKVX NSCLC, with KM12 colon, in the test on LOX IMVI melanoma, in the test with MDA-MB-231 breast and in the test on MDA-MB-435 was > 100 µM each time. In addition, the TGI in the test with NCI/ADR-RES ovarian, with SK-MEL-5 melanoma and in the test with SNB-75 CNS was > 100 µM each time.
On to `N#Cc1c(C#N)c(-c2ccco2)n(/N=C/c2ccco2)c1N`, for which the TGI in the test on ACHN renal is > 100 µM; with EKVX NSCLC, > 100 µM; in the test with KM12 colon, > 100 µM; in the test on LOX IMVI melanoma, > 100 µM; in the test on MDA-MB-231 breast, 36.3 µM; in the test on MDA-MB-435 it was > 100 µM. The TGI in the test on NCI/ADR-RES ovarian is > 100 µM; with SK-MEL-5 melanoma, > 100 µM; with SNB-75 CNS, 40 µM.
